Assays:
[1] = tested on: Streptozotocin-induced diabetes rats; experiment: In vivo anti-hyperglycemia assay; set-up: species or system rat; settings: streptozotocin-induced diabetic rats, single oral dose, blood glucose at 0-5 hr, various dosages
Method: Streptozotocin-induced diabetes rats were used for assessment of blood glucose lowering effect. Adult male Sprague Dawley rats were obtained from BioLasco, Ilan, Taiwan. The rats received an intraperitoneal injection of streptozotocin (Sigma, Cat. No. S0130, St. Louis, Mo., USA) at a concentration of 65 mg/kg every other day. The streptozotocin solution was freshly prepared in 0.01 M citrate buffer. Blood samples were collected via tail vein with a 25 G needle once a week and were tested using a blood glucometer (ACCU-CHEK® from Roche, Basel, Schweiz) for glucose level. A glucose level of higher than 450 mg/dL indicates streptozotocin-induced diabetes. The diabetic rats were divided into 3-6 groups and were orally administered with a single dose of the tested compounds, dapagliflozin (reference compound), or vehicle. Blood samples were collected via tail vein at 0 (pre-dose), 0.5, 1, 2, 3, 4, and 5 hr after the oral administration and were measured for blood glucose levels with the glucometer. A P value of less than 0.05 was considered statistically significant.

Male Sprague-Dawley rats = experiment: In vivo urine glucose excretion assay; set-up: species or system rat; settings: single oral dose 0.1, 1, 10, and 50 mg/kg, then 50% glucose solution 2 g/kg orally, 24-hour urine collection
Method: Male Sprague-Dawley rats were used for glucosuria assessment. Male Sprague-Dawley rats of 8-10 weeks old were obtained from BioLasco, Ilan, Taiwan. The rats to be tested were fasted overnight and divided into 6 weight-matched groups. The rats were mildly anesthetized with a mixed gas of 30% O2 and 70% CO2 by inhalation and were orally gavaged with a single dose of the tested compounds (0.1, 1, 10, and 50 mg/kg), dapagliflozin (reference compound, 1 mg/kg), or vehicle. Each of the tested rats was subsequently dosed orally with 50% glucose solution (2 g/kg). The rats were returned to metabolism cages (ISHIHALA, Tokyo, Japan) for 24-hour urine collection and were re-fed at 1 h after the glucose challenge. Volume of the urine was measured and recorded. The urine samples were measured for glucose levels by a DRI-CHEM 3500 analyzer (FUJI, Tokyo, Japan). A P value of less than 0.05 was considered statistically significant.

Compound | anti-hyperglycemia effect (blood glucose lowering) [1] | effect in increasing urinary glucose excretion (Male Sprague-Dawley rats)
CCOc1ccc(Cc2cc([C@@H]3O[C@H](C=NNC(=O)c4ccc(Cl)s4)[C@@H](O)[C@H](O)[C@H]3O)ccc2Cl)cc1 [Compound 95] | strong anti-hyperglycemia effect | strong effect in increasing urinary glucose excretion in a dose-dependent manner
CCOc1ccc(Cc2cc([C@@H]3O[C@H](C=NNC(=S)NC)[C@@H](O)[C@H](O)[C@H]3O)ccc2Cl)cc1 [Compound 87] | strong anti-hyperglycemia effect | strong effect in increasing urinary glucose excretion in a dose-dependent manner
CCOc1ccc(Cc2cc([C@@H]3O[C@H](C=NOC)[C@@H](O)[C@H](O)[C@H]3O)ccc2Cl)cc1 [Compound 71] |  | strong effect in increasing urinary glucose excretion in a dose-dependent manner
CCOc1ccc(Cc2cc([C@@H]3O[C@H](C=NNCCO)[C@@H](O)[C@H](O)[C@H]3O)ccc2Cl)cc1 [Compound 78] | strong anti-hyperglycemia effect | strong effect in increasing urinary glucose excretion in a dose-dependent manner
CCOc1ccc(Cc2cc([C@@H]3O[C@H](C=NNC(=O)c4ccccc4)[C@@H](O)[C@H](O)[C@H]3O)ccc2Cl)cc1 [Compound 93] | strong anti-hyperglycemia effect | strong effect in increasing urinary glucose excretion in a dose-dependent manner
CCOc1ccc(Cc2cc([C@@H]3O[C@H](C=NNC(=O)c4cccs4)[C@@H](O)[C@H](O)[C@H]3O)ccc2Cl)cc1 [Compound 81] |  | strong effect in increasing urinary glucose excretion in a dose-dependent manner
CCOc1ccc(Cc2cc([C@@H]3O[C@H](CNOC)[C@@H](O)[C@H](O)[C@H]3O)ccc2Cl)cc1 [Compound 79] |  | strong effect in increasing urinary glucose excretion in a dose-dependent manner
CCOc1ccc(Cc2cc([C@@H]3O[C@H](C=NO)[C@@H](O)[C@H](O)[C@H]3O)ccc2Cl)cc1 [Compound 70] | strong anti-hyperglycemia effect | strong effect in increasing urinary glucose excretion in a dose-dependent manner
O[C@@H]1[C@@H](O)[C@H](c2cn(Cc3ccc(C4CC4)cc3)c3c(F)cccc23)OC[C@H]1O [Compound 108] | strong anti-hyperglycemia effect | 

— patent US8697658B2, “Glycoside compounds” (National Health Research Institutes, priority 2011, dated 2014)
